From ChEMBL document CHEMBL5331123, “Potent Dual Inhibitors of Steroid Sulfatase and 17β-Hydroxysteroid Dehydrogenase Type 1 with a Suitable Pharmacokinetic Profile for In Vivo Proof-of-Principle Studies in an Endometriosis Mouse Model” (J Med Chem, 2023)
Converted amounts (≈) assume the structure as drawn.

Biological target: T1, Steryl-sulfatase (Homo sapiens, UniProt P08842)
T1 sequence (P08842 whole entry): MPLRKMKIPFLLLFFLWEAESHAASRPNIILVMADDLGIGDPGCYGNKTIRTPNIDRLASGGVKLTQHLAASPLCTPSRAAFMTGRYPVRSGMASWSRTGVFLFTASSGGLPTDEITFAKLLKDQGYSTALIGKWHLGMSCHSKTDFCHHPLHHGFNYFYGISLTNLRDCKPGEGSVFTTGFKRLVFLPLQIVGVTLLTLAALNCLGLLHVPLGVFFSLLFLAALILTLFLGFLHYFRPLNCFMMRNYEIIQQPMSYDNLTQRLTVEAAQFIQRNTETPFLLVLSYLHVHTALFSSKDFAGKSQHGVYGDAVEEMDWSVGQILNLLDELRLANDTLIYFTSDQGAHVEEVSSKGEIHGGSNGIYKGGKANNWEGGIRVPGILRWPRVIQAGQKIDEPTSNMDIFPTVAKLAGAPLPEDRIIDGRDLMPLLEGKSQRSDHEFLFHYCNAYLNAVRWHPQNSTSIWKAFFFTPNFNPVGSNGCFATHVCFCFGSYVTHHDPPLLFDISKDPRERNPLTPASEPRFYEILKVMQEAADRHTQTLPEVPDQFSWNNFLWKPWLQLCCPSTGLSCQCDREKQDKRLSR
Test: Inhibition of human STS expressed in human T47D cells using [3H]E1S as substrate incubated for 1 hr followed by substrate addition measured after 24 hrs in presence of E1S by HPLC analysis
Type: cell-based
Conditions: not given; call rule not given here

Row | SMILES | IC50 [nM]
1 | Cc1ccc(OS(N)(=O)=O)cc1N(C)C(=O)c1ccc(-c2cc(C)c(O)c(C)c2)o1 | 450

Biological target: T2, 17-beta-hydroxysteroid dehydrogenase type 1 (Homo sapiens, UniProt P14061)
T2 sequence (P14061 whole entry): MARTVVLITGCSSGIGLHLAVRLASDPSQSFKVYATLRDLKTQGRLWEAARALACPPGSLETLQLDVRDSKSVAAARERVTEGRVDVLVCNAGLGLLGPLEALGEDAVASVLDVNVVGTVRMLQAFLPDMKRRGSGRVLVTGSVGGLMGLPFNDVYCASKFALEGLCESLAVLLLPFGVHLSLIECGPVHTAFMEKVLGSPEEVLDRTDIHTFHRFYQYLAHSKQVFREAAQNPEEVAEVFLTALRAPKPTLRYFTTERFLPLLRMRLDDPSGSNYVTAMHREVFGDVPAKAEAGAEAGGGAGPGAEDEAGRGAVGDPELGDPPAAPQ
Test: Inhibition of human 17beta-HSD1 expressed in human T47D cells using [3H]E1 as substrate incubated for 1 hr followed by substrate addition measured after 40 mins in presence of E1 by HPLC analysis
Type: cell-based
Conditions: not given

Row | SMILES | IC50 [nM]
2 | Cc1cc(-c2ccc(C(=O)N(C)c3cccc(OS(N)(=O)=O)c3C)o2)cc(C)c1O | 58
3 | Cc1cc(-c2ccc(C(=O)N(C)c3c(C)cccc3OS(N)(=O)=O)o2)cc(C)c1O | 140
4 | Cc1ccc(OS(N)(=O)=O)cc1N(C)C(=O)c1ccc(-c2cc(C)c(O)c(C)c2)o1 | 3.2
5 | Cc1ccccc1N(C)C(=O)c1ccc(-c2cc(C)c(O)c(C)c2)o1 | 2.9

Organism: Homo sapiens
Test: Selectivity ratio of IC50 for human 17beta-HSD2 to IC50 for human 17beta-HSD1
Conditions: not given

Row | SMILES | Ratio IC50
6 | O=C(c1ccc(-c2ccc(O)cc2)s1)c1c(F)ccc(O)c1F | 24
7 | Cc1ccccc1N(C)C(=O)c1ccc(-c2cc(C)c(O)c(C)c2)o1 | 563

Test system: not listed separately
Test: Metabolic stability in human liver S9 fraction assessed as half life measured upto 60 mins in presence of NADPH by LC-MS/MS analysis
Type: ADME, subcellular
Conditions: liver S9 fraction

Row | SMILES | half-life [min]
8 | O=C(c1ccc(-c2ccc(O)cc2)s1)c1c(F)ccc(O)c1F | < 5
9 | Cc1ccc(OS(N)(=O)=O)cc1N(C)C(=O)c1ccc(-c2cc(C)c(O)c(C)c2)o1 | 19.3
10 | Cc1ccccc1N(C)C(=O)c1ccc(-c2cc(C)c(O)c(C)c2)o1 | 38

Same assay, conditions: s9, 1 h, 1 h

Row | SMILES | t1/2 [min]
11 | Cc1ccccc1N(C)C(=O)c1ccc(-c2cc(C)c(O)c(C)c2)o1 | 38.1

Test system: not listed separately
Test: Metabolic stability in mouse liver S9 fraction assessed as half life measured upto 60 mins in presence of NADPH by LC-MS/MS analysis
Type: ADME, subcellular
Conditions: liver S9 fraction

Row | SMILES | half-life [min]
12 | Cc1ccc(OS(N)(=O)=O)cc1N(C)C(=O)c1ccc(-c2cc(C)c(O)c(C)c2)o1 | 28.5
13 | Cc1ccccc1N(C)C(=O)c1ccc(-c2cc(C)c(O)c(C)c2)o1 | 19

Same assay, conditions: s9, 1 h, 1 h

Row | SMILES | t1/2 [min]
14 | Cc1ccccc1N(C)C(=O)c1ccc(-c2cc(C)c(O)c(C)c2)o1 | 19.1

Biological target: T3, Steryl-sulfatase (Homo sapiens) (UniProt P08842)
T3 sequence (whole entry): T1 sequence (P08842 whole entry)
Test: Inhibition of human STS expressed in human T47D cells at 1 uM using [3H]E1S as substrate incubated for 1 hr followed by substrate addition measured after 24 hrs in presence of E1S by HPLC analysis relative to control
Type: cell-based
Conditions: time 25.0 hrs

Row | SMILES | inhibition [%]
15 | Cc1cc(-c2ccc(C(=O)N(C)c3cccc(OS(N)(=O)=O)c3C)o2)cc(C)c1O | < 10
16 | Cc1cc(-c2ccc(C(=O)N(C)c3c(C)cccc3OS(N)(=O)=O)o2)cc(C)c1O | < 10
17 | Cc1ccccc1N(C)C(=O)c1ccc(-c2cc(C)c(O)c(C)c2)o1 | < 10

Biological target: T2, 17-beta-hydroxysteroid dehydrogenase type 1
Test: Inhibition of human placental cytosolic fraction 17beta-HSD1 using [3H]E1 as substrate measured after 10 mins in presence of NADH by HPLC analysis
Type: tissue-based, Placenta
Conditions: not given

Row | SMILES | IC50 [nM]
18 | Cc1ccc(OS(N)(=O)=O)cc1N(C)C(=O)c1ccc(-c2cc(C)c(O)c(C)c2)o1 | 16

Biological target: T4, 17-beta-hydroxysteroid dehydrogenase type 2 (Homo sapiens, UniProt P37059)
T4 sequence (P37059 whole entry): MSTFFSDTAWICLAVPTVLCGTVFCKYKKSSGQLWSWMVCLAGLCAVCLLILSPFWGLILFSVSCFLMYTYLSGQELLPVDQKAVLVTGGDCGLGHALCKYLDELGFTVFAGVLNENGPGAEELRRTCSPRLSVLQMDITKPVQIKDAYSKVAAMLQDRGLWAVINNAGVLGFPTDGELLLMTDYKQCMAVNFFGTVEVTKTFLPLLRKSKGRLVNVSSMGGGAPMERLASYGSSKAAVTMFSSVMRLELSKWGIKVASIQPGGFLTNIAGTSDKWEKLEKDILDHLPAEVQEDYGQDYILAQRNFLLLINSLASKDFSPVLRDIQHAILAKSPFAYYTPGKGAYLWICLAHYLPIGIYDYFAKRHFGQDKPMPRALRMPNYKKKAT
Test: Inhibition of human placental microsomal fraction 17beta-HSD2 using [3H]E2 as substrate measured after 20 mins in presence of NAD+ by HPLC analysis
Type: microsomes, Placenta, Microsome
Conditions: not given

Row | SMILES | IC50 [nM]
19 | Cc1ccc(OS(N)(=O)=O)cc1N(C)C(=O)c1ccc(-c2cc(C)c(O)c(C)c2)o1 | 4400

Organism: Homo sapiens
Test: Selectivity ratio of IC50 for human placental microsomal fraction 17beta-HSD2 to IC50 for human placental microsomal fraction 17beta-HSD1
Conditions: not given

Row | SMILES | Ratio IC50
20 | Cc1ccc(OS(N)(=O)=O)cc1N(C)C(=O)c1ccc(-c2cc(C)c(O)c(C)c2)o1 | 275
21 | Cc1ccccc1N(C)C(=O)c1ccc(-c2cc(C)c(O)c(C)c2)o1 | 570

Biological target: T1, Steryl-sulfatase
Test: Irreversible inhibition of human STS expressed in human T47D cells using [3H]E1S as substrate preincubated for 2 hr followed by substrate addition measured after 24 hrs in presence of E1S by HPLC analysis
Type: cell-based
Conditions: not given

Row | SMILES | IC50 [nM]
22 | Cc1ccc(OS(N)(=O)=O)cc1N(C)C(=O)c1ccc(-c2cc(C)c(O)c(C)c2)o1 | 460

Test system: not listed separately
Test: Metabolic stability in human liver S9 fraction assessed as intrinsic clearance measured upto 60 mins in presence of NADPH by LC-MS/MS analysis
Type: ADME, subcellular
Conditions: read-out: CLH

Row | SMILES | microsomal CLint [µL/min/mg]
23 | O=c1ccc2ccc(O)cc2o1 [UMBELLIFERONE] | 139
24 | C[C@]12CC[C@H]3[C@@H](CCC4=CC(=O)CC[C@@]43C)[C@@H]1CC[C@@H]2O [TESTOSTERONE] | 74.5
25 | Cc1ccc(OS(N)(=O)=O)cc1N(C)C(=O)c1ccc(-c2cc(C)c(O)c(C)c2)o1 | 35.9
26 | Cc1ccccc1N(C)C(=O)c1ccc(-c2cc(C)c(O)c(C)c2)o1 | 18.2

Test system: HEK293
Test: Cytotoxicity against HEK293 cells assessed as cell growth inhibition by measuring lethal concentration measured after 72 hrs by MTT assay
Type: functional, Homo sapiens
Conditions: not given

Row | SMILES | LC20
27 | Cc1ccc(OS(N)(=O)=O)cc1N(C)C(=O)c1ccc(-c2cc(C)c(O)c(C)c2)o1 | <=38 uM

Test system: HepG2
Test: Cytotoxicity against human HepG2 cells assessed as cell growth inhibition by measuring lethal concentration measured after 48 hrs by MTT assay
Type: functional
Conditions: not given

Row | SMILES | LC20 [nM]
28 | Cc1ccc(OS(N)(=O)=O)cc1N(C)C(=O)c1ccc(-c2cc(C)c(O)c(C)c2)o1 | 28000

Biological target: T5, Aryl hydrocarbon receptor (Homo sapiens, UniProt P35869)
T5 sequence (P35869 whole entry): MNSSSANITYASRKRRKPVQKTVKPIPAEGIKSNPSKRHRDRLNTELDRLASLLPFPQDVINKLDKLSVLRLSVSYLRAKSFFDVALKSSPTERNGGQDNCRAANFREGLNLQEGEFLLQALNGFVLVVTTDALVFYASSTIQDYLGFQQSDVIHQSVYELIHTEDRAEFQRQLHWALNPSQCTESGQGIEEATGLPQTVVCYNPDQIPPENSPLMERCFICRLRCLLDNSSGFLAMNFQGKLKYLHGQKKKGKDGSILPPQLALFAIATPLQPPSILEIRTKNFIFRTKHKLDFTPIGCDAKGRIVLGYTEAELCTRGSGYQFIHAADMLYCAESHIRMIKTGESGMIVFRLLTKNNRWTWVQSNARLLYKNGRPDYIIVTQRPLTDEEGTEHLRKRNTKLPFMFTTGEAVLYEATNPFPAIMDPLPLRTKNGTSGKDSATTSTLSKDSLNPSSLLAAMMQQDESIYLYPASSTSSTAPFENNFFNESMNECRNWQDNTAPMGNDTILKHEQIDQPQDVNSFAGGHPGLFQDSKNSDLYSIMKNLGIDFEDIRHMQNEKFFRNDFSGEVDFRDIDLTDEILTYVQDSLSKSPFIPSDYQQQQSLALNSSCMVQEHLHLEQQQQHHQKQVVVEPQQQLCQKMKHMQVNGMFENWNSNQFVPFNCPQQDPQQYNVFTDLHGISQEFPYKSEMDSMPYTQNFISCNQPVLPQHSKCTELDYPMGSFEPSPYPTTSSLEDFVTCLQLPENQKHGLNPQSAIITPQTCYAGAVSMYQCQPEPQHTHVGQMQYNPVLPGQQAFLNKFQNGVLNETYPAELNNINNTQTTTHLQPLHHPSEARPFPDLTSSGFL
Test: Activation of AhR in human HepG2 cells assessed as increase in CYP1A1 activity at 3.16 uM measured after 48 hrs by fluorescence based analysis
Type: cell-based
Conditions: hepg2, 48 h

Row | SMILES | Activity
29 | Cc1cc(-c2ccc(C(=O)N(C)c3c(C)cccc3OS(N)(=O)=O)o2)cc(C)c1O | Not Active
30 | Cc1ccc(OS(N)(=O)=O)cc1N(C)C(=O)c1ccc(-c2cc(C)c(O)c(C)c2)o1 | Not Active

Test system: not listed separately
Test: Observed Cmax in C57BL/6 mouse at 50 mg/kg, sc administered as single dose measured upto 24 hrs by HPLC-MS/MS analysis
Type: ADME, organism-based
Design: time < 24 hrs, dose 50 mg/kg, route sc
Conditions: in vivo

Row | SMILES | Cmax [nM]
31 | Cc1ccc(OS(N)(=O)=O)cc1N(C)C(=O)c1ccc(-c2cc(C)c(O)c(C)c2)o1 | 517

Test system: not listed separately
Test: Drug concentration in C57BL/6 mouse at 50 mg/kg, sc administered as single dose measured after 24 hrs by HPLC-MS/MS analysis
Type: ADME, organism-based
Conditions: in vivo, read-out: Drug uptake

Row | SMILES | concentration at 24 h [nM]
32 | Cc1ccc(OS(N)(=O)=O)cc1N(C)C(=O)c1ccc(-c2cc(C)c(O)c(C)c2)o1 | 49

Test system: not listed separately
Test: Half life in C57BL/6 mouse at 50 mg/kg, sc administered as single dose measured after 24 hrs by HPLC-MS/MS analysis
Type: ADME, organism-based
Conditions: in vivo

Row | SMILES | half-life [min]
33 | Cc1ccc(OS(N)(=O)=O)cc1N(C)C(=O)c1ccc(-c2cc(C)c(O)c(C)c2)o1 | 129

Test system: not listed separately
Test: AUC(0 to 24 hrs) in C57BL/6 mouse at 50 mg/kg, sc administered as single dose measured after 24 hrs by HPLC-MS/MS analysis
Type: ADME, organism-based
Design: time 24 hrs, dose 50 mg/kg, route sc
Conditions: in vivo

Row | SMILES | AUC(0-t) at 24 h [ng·h/mL]
34 | Cc1ccc(OS(N)(=O)=O)cc1N(C)C(=O)c1ccc(-c2cc(C)c(O)c(C)c2)o1 | 1900

Test system: not listed separately
Test: Lipophilicity, logD of compound at pH 7.4
Type: physicochemical
Conditions: buffer

Row | SMILES | logD
35 | Cc1ccc(OS(N)(=O)=O)cc1N(C)C(=O)c1ccc(-c2cc(C)c(O)c(C)c2)o1 | 2.68

Test system: not listed separately
Test: Aqueous solubility of compound in PBS measured after 1 to 24 hrs
Type: physicochemical
Conditions: time 1-24 hrs

Row | SMILES | solubility [µM]
36 | Cc1ccc(OS(N)(=O)=O)cc1N(C)C(=O)c1ccc(-c2cc(C)c(O)c(C)c2)o1 | 20 (≈ 8.61 µg/mL)
